Reference: patent US20240325326A1, “METHOD OF TREATING PULMONARY FIBROSIS BY TARGETING GLYCOGEN UTILIZATION” (University of Kentucky Research Foundation, priority 2023, published 2024)
“Also recorded” adds a separate entry of the source.

Test system: diseased human lung fibroblasts (DHLF)
Experiment: Fibrosis-related gene expression (Bio-rad Prime PCR Fibrosis gene panel) in human lung fibroblasts treated for two days with a laforin inhibitor
Format: cell-based
Conditions: NHLF or DHLF derived from idiopathic pulmonary fibrosis patients; treated two days vs vehicle control; mRNA; n=3 samples per condition; FIG. 14
Experimental: Normal human lung fibroblasts (NHLF) or diseased human lung fibroblasts (DHLF) derived from idiopathic pulmonary fibrosis patients were treated for two days with a laforin inhibitor (or vehicle control) before harvesting mRNA and assessing gene expression. Samples were run on Bio-rad Prime PCR Fibrosis gene panel plates with n=3 samples per condition. *p<0.05, ***p<0.001 two-tailed student's t-test.
Normal human lung fibroblasts (NHLF) or diseased human lung fibroblasts (DHLF) derived from idiopathic pulmonary fibrosis patients were treated for two days with a laforin inhibitor (or vehicle control). […] Following treatment, mRNA was harvested from the cells and gene expression was assessed.

`O=C(Nc1ccc(OCc2ccccc2)c(Cl)c1)C(=O)Nc1ccccc1NC(=O)C(c1ccccc1)S(=O)(=O)O` (stereo not shown) [L319-21-M50] was tested, and the fibrosis-related gene expression was “disease-specific expression patterns being rescued by laforin inhibition; also recorded: decreases fibrosis-related gene expression in diseased human lung fibroblasts”.
